Results reported in patent US8367659B2, “Oxazinyl isoflavonoid compounds, medicaments and use” (Marshall Edwards, Inc., priority 2007, dated 2013).
Read-outs that look alike come from different tables or passages of the source.

What was measured:
[1] = tested on: low density lipoprotein (LDL); assay: Inhibition of Cu2+-induced oxidation of LDL (lipid peroxides, FOX assay); type: biochemical
Description: Blood was collected by venipuncture and plasma separated by centrifugation. LDL was then isolated from plasma using a 4-step sodium chloride density gradient and ultracentrifuged at 200,000 g for 20 hours at 4° C. The collect LDL was purified by passage through gel filtration PD10 column to remove excess salt and EDTA, and stored in the dark at 4° C. to prevent auto-oxidation and used with two weeks of isolation. The LDL cholesterol content was measure using a standard enzymatic method and protein concentration determined by the Lowry method using BSA as the standard.
[…] Oxidation reactions were initiated by the addition of freshly prepared Cu^2+ solution, such that the final concentration of CuSO4 was 5 μM. […] The extent of lipoprotein oxidation was determined by measuring the formation of lipid-peroxides on aliquots removed every 30-minute over a 3-hour period. Peroxides were determined at each time point by the ferrous oxidation-xylenol orange (FOX) assay using standard hydrogen peroxide curve (5 to 200 μM). Compounds (1) and (2) were examined in at least two separate experiments performed on separate days.

[2] = tested on: T cells; assay: T cell proliferation (ConA-stimulated mouse splenocytes, MTT); type: cell-based, Skh-1:HR 1 (hairless) mice; conditions: 10 μM, 3 days
Description: (§1) Male Skh-1:HR 1 (hairless) mice, approximately six weeks old were killed by cervical dislocation. Single cell suspensions were made from the spleen and erythrocytes were lysed in buffer (0.14 M NH4Cl, 17 mM Tris, pH 7.2). The remaining splenocytes were cultured in RPMI-1640 (Gibco) supplemented with 10% (v:v) FBS, 200 mM L-glutamine, penicillin/streptomycin and […] 2-mercaptoethanol. Splenocytes were added to quadruplicate wells containing either concanavalin A (ConA, Sigma-Aldrich—0.4 μg/well), LPS (Sigma-Aldrich—1 μg/well) or no mitogen, as well 10 μM of test compound in DMSO. Samples were analysed after 3 days incubation at 37° C. in 5% CO2 in air. Methylthiazoletetrazolium (MTT) is bioreduced by viable cells into a coloured formazan product that is soluble in DMSO. Thus the quantity of formazan product is directly proportional to the number of living cells in culture, and can be measured using a spectrophotometer at 570 nm. MTT was added to each well, incubated for a further 4 hrs and then colour developed with 0.04 N HCl in isopropanol. Culture supernatants were stored after collection at −80° C. and analysed by ELISA (BD Biosciences) for IFN-γ (a Th-1 cytokine) and for T cells alone, IL-6 (a Th-2 cytokine).

[3] = tested on: B cells; assay: B cell proliferation (LPS-stimulated mouse splenocytes, MTT); type: cell-based, Skh-1:HR 1 (hairless) mice; conditions: 10 μM, 3 days
Description: as §1

[4] = tested on: IFN-γ; assay: IFN-γ synthesis by mouse splenocytes (ELISA); type: cell-based, Skh-1:HR 1 (hairless) mice; conditions: 10 μM; 3 days
Description: as §1

[5] = tested on: Rabbit kidney (RK-13) cells; assay: Toxicity to normal cells, rabbit kidney (RK-13) cells; type: cell-based; conditions: Oryctolagus cuniculus
Description: IC50 values were determined for each cell line. Cells were seeded in 96-well plates at an appropriate cell density as determined from growth kinetics analysis and cultured for 5 days in the absence and presence of the test compounds. Cell proliferation was assessed after the addition of 20 μl of 3-4,5 dimethylthiazol-2,5-diphenyl tetrazolium bromide (MTT, 2.5 mg/ml in PBS, Sigma) for 3-4 hrs at 37° C. according to manufacturer's instructions. IC50 values were calculated from semi-log plots of % of control proliferation on the y-axis against log dose on the x-axis.
The neonatal foreskin fibroblasts (NFF) were a gift from Dr. Peter Parsons (Queensland Institute of Medical Research). Rabbit kidney (RK-13) cells were obtained from Miller Whalley (Macquarie University). Both cell lines were cultured in RPMI supplemented with 10% FCS(CSL, Australia), penicillin (100 U/ml), streptomycin ([…]), L-glutamine (2 mM) and sodium bicarbonate (1.2 g/L), and cultured at 37° C. in a humidified atmosphere of 5% CO2. IC50 values were determined as described above.

`CC(c1ccccc1)N1COc2cc3c(cc2C1)C=C(c1ccc(O)cc1)CO3` (stereo not drawn) [Compound 2, 4-(3-(1-Phenylethyl)-2,3,4,8-tetrahydrochromeno[6,7-e][1,3]oxazin-7-yl)phenol] was tested, and the EC50 ([1]; LDL 0.1 mg/mL, CuSO4 5 μM, read-out: EC50, concentration at which 50% of the LDL oxidation was inhibited) was 0.63 µM, the lipid peroxide formation ([1]; LDL 0.1 mg/ml + compound 0.1 μM + Cu^++ 5 μM, 0 min) was 10.5 ± 2.93 and the lipid peroxide formation ([1]; LDL 0.1 mg/ml + compound 0.1 μM + Cu^++ 5 μM, 30 min) was 13.9 ± 2.51. The lipid peroxide formation ([1]; LDL 0.1 mg/ml + compound 0.1 μM + Cu^++ 5 μM, 60 min) was 23.7 ± 4.71, the lipid peroxide formation ([1]; LDL 0.1 mg/ml + compound 0.1 μM + Cu^++ 5 μM, 90 min) was 75.1 ± 8.43 and the lipid peroxide formation ([1]; LDL 0.1 mg/ml + compound 0.1 μM + Cu^++ 5 μM, 120 min) was 138.5 ± 2.94. It also gave a lipid peroxide formation ([1]; LDL 0.1 mg/ml + compound 0.1 μM + Cu^++ 5 μM, 180 min) of 173.7 ± 34.4, a lipid peroxide formation ([1]; LDL 0.1 mg/ml + compound 1.0 μM + Cu^++ 5 μM, 0 min) of 10.22 ± 2.9 and a lipid peroxide formation ([1]; LDL 0.1 mg/ml + compound 1.0 μM + Cu^++ 5 μM, 30 min) of 11.62 ± 2.4. The lipid peroxide formation ([1]; LDL 0.1 mg/ml + compound 1.0 μM + Cu^++ 5 μM, 60 min) was 12.08 ± 3.2, the lipid peroxide formation ([1]; LDL 0.1 mg/ml + compound 1.0 μM + Cu^++ 5 μM, 90 min) was 18.25 ± 3.2 and the lipid peroxide formation ([1]; LDL 0.1 mg/ml + compound 1.0 μM + Cu^++ 5 μM, 120 min) was 35.12 ± 0.4. For the same compound, the lipid peroxide formation ([1]; LDL 0.1 mg/ml + compound 1.0 μM + Cu^++ 5 μM, 180 min) was 133.1 ± 18.3, the lipid peroxide formation ([1]; LDL 0.1 mg/ml + compound 10 μM + Cu^++ 5 μM, 0 min) was 10.20 ± 2.6 and the lipid peroxide formation ([1]; LDL 0.1 mg/ml + compound 10 μM + Cu^++ 5 μM, 30 min) was 15.99 ± 0.1. For the same compound, the lipid peroxide formation ([1]; LDL 0.1 mg/ml + compound 10 μM + Cu^++ 5 μM, 60 min) was 18.26 ± 0.8, the lipid peroxide formation ([1]; LDL 0.1 mg/ml + compound 10 μM + Cu^++ 5 μM, 90 min) was 20.64 ± 1.3 and the lipid peroxide formation ([1]; LDL 0.1 mg/ml + compound 10 μM + Cu^++ 5 μM, 120 min) was 23.68 ± 1.2. For the same compound, the lipid peroxide formation ([1]; LDL 0.1 mg/ml + compound 10 μM + Cu^++ 5 μM, 180 min) was 24.6 ± 21.9, the lipid peroxide formation ([1]; LDL 0.1 mg/ml + compound 100 μM + Cu^++ 5 μM, 0 min) was 12.09 ± 2.8 and the lipid peroxide formation ([1]; LDL 0.1 mg/ml + compound 100 μM + Cu^++ 5 μM, 30 min) was 15.93 ± 5.4. The lipid peroxide formation ([1]; LDL 0.1 mg/ml + compound 100 μM + Cu^++ 5 μM, 60 min) was 19.40 ± 7.8, the lipid peroxide formation ([1]; LDL 0.1 mg/ml + compound 100 μM + Cu^++ 5 μM, 90 min) was 23.27 ± 8.7 and the lipid peroxide formation ([1]; LDL 0.1 mg/ml + compound 100 μM + Cu^++ 5 μM, 120 min) was 28.76 ± 5.0. For the same compound, the lipid peroxide formation ([1]; LDL 0.1 mg/ml + compound 100 μM + Cu^++ 5 μM, 180 min) was 28.6 ± 12.9, the lipid peroxide formation ([1]; compound 100 μM + Cu^++ 5 μM, without LDL, 0 min) was 7.69 ± 3.8 and the lipid peroxide formation ([1]; compound 100 μM + Cu^++ 5 μM, without LDL, 30 min) was 14.97 ± 0.4. For the same compound, the lipid peroxide formation ([1]; compound 100 μM + Cu^++ 5 μM, without LDL, 60 min) was 19.19 ± 2.1, the lipid peroxide formation ([1]; compound 100 μM + Cu^++ 5 μM, without LDL, 90 min) was 24.30 ± 4.3 and the lipid peroxide formation ([1]; compound 100 μM + Cu^++ 5 μM, without LDL, 120 min) was 28.31 ± 2.8. For the same compound, the lipid peroxide formation ([1]; compound 100 μM + Cu^++ 5 μM, without LDL, 180 min) was 33.20 ± 6.7, the “effect on T cells” value [2] was “markedly and significantly immunosuppressive” and the “effect on B cells” value [3] was “markedly and significantly immunosuppressive”. For the same compound, the “synthesis of INF-γ into the supernatant” value [4] was “concomitant reduction”, the IC50 ([5]; normal, non-transformed cells, read-out: IC50 μM, RK Rabbit Kidney) was 53.3 µM and the IC50 ([5]; read-out: toxicity to RK-13 cells (IC50)) was over 30 µM.
